The test can be described thus: Skin moisture after application of moisturizing compositions (Corneometer). The format is in vivo. The settings on record: applied to skin. Here is the method: Glycerol monostearate (GMS) cream moisturizing compositions containing 2% glycerin (Sample 1), 1% sodium erythorbate (Sample 2), 1% δ-gluconolactone (Sample 3), or 2% of a biodegradation prevention mixture containing 75% (by weight) sodium benzoate and 25% (by weight) sodium erythorbate were tested as follows.
The GMS cream was prepared as follows. Polyoxyethylene glyceryl monostearate, glyceryl monostearate, cetearyl alcohol, and myristyl propionate were mixed and heated to 60° C. in a first container. In four separate containers, glycerin, sodium erythorbate, δ-gluconolactone, or the aforementioned biodegradation prevention mixture were mixed with sterile deionized water and heated to 60° C. The solution in the first container was poured into each container containing glycerin, sodium erythorbate, δ-gluconolactone, or the biodegradation prevention mixture to produce the desired concentrations, e.g., 2% glycerin (w/w) (Sample 1), 1% sodium erythorbate (w/w) (Sample 2), 1% δ-gluconolactone (w/w) (Sample 3), or 2% biodegradation prevention mixture (w/w) (Sample 4). The containers were maintained at 60° C. for 10 minutes, and then allowed to cool. The pH of the solution was adjusted to pH 7 with sodium hydroxide to yield the GMS cream.
The moisturizing compositions were applied once to skin and skin moisture measurements were taken over a 7 day period following administration. […]

Turning to `O=C1O[C@H]([C@H](O)CO)C([O-])=C1O.[Na+]` [sodium erythorbate], the “Skin moisturization compared with known moisturizers such as glycerin” value is “moisturize skin more effectively than many known moisturizers”.
In the case of `O=C1O[C@H](CO)[C@@H](O)[C@H](O)[C@H]1O` [δ-gluconolactone] it was “moisturize skin more effectively than many known moisturizers”.

The values above are taken from patent publication US20060093634A1, “Personal care compositions and concentrates for making the same” (Lonza Inc., priority 2004, published 2006).
